Literature values, collected in US20180162913A1, “METHODS FOR PO[…] IMMUNE RESPONSE USING DEPOT-FORMING AND NON-DEPOT-FORMING VACCINES” (IMMUNOVACCINE TECHNOLOGIES INC., priority 2015, published 2018).

## O=P1(N(CCCl)CCCl)NCCCO1 (stereo not drawn) [Cyclophosphamide (CPA), N,N-bis(2-chloroethyl)-1,3,2-oxazaphosphinan-2-amine 2-oxide]
In vivo
  bioavailability, intravenous infusion versus parenteral and oral administration: little difference in bioavailability
patients
  Total systemic clearance of CPA and its metabolites: 5 to 9 h
  peak plasma levels of the parent, variation between patients: 3 to 11 h
